Measurements reported in patent publication US20220226321A1, “INHIBITOR OF MNK FOR THE TREATMENT OF NEUROPATHIC PAIN” (Board of Regents, The University of Texas System, priority 2019, published 2022).

Columns and labels:
DRG neurons = details: prior work; cited from earlier work
mice [1] = details: Moy et al. (2017); cited from earlier work
cultured DRG neurons = test: Western blot of cultured DRG neurons treated with IFN-α, IFN-β, ISRIB or poly (I:C); format: cell-based, mouse; details: direct application 10 μg/mL
Procedure: Primary cell culture of mouse DRG neurons and Western blot. Cultured primary DRG neurons were used to test the effects of IFN-α [(300 units (U)/mL] and IFN-β [(300 units (U)/mL] application. For these experiments, mice were anesthetized with isoflurane and killed by decapitation. Then DRGs, from all spinal levels, were dissected and placed in chilled Hanks balanced-salt solution (HBSS, Invitrogen) until processed. Dorsal root ganglia were digested in 1 mg/mL collagenase A (Roche, Mannheim, Germany) for 25 minutes at 37° C. then subsequently digested in a 1:1 mixture of 1 mg/mL collagenase D and papain (Roche) for 20 minutes at 37° C. After this step, dorsal root ganglia were then triturated in a 1:1 mixture of 1 mg/mL trypsin inhibitor (Roche) and bovine serum albumin (BioPharm Laboratories, Bluffdale, Utah), then filtered through a 70 μm cell strainer (Corning, N.Y.). Cells were pelleted then resuspended in DMEM/F12 with GlutaMAX (Thermo Fisher Scientific, MA) containing 10% fetal bovine serum (FBS; Thermo Fisher Scientific), 5 ng/mL NGF, 1% penicillin and streptomycin, and […] to inhibit mitosis of non-neuronal cells and were distributed evenly in a 6-well plate coated with poly-D-lysine (Becton Dickinson, NJ). DRG neurons were maintained in a 37° C. incubator containing 5% CO2 with a media change every other day. On day 6, DRG neurons were treated with either vehicle, IFN-α or IFN-β for 1, 3, 6 and 24 h. Following treatments, cells were rinsed with chilled 1×PBS buffer, harvested in 200 μL of RIPA lysis buffer (50 mM Tris, pH 7.4, 150 mM NaCl, 1 mM EDTA, pH 8.0, and 1% Triton X-100) containing protease and phosphatase inhibitors (Sigma-Aldrich), and then sonicated for 5 seconds. To clear debris, samples were centrifuged at 14,000 rpm for 15 min at 4° C. Ten to 15 μg of protein was loaded into each well and separated by a 10% SDS-PAGE gel. Proteins were transferred to a 0.45 PVDF membrane (Millipore, MA) at 30 V overnight at 4° C. Subsequently, membranes were blocked with 5% non-fat dry milk in 1× Tris buffer solution containing Tween 20 (TTBS) for at least 2 h. Membranes were washed 3 times for 10 minutes each (3×10) in 1×TTBS, then incubated with primary antibodies overnight at 4° C. The following day, membranes were washed 3×10 each then incubated with the corresponding secondary antibodies at room temperature for 1 h. After incubation, membranes were washed with 1×TTBS 3×10 each. Signals were detected using Immobilon Western Chemiluminescent HRP Substrate (Millipore) and then visualized with Bio-Rad ChemiDoc Touch. Membranes were stripped using Restore Western Blot Stripping buffer (Thermo Fisher Scientific) and reprobed with another antibody. Analysis was performed using Image lab 6.0.1 software for Mac (Bio-Rad, Hercules, Calif.).

eIF4E = test: immunohistochemistry of p-eIF4E and eIF4E in L5 DRGs; format: in vivo, mouse; details: WT mice, day 2, 3 hr post 2nd injection
Procedure: For tissues, animals were anesthetized with isoflurane and killed by decapitation, and tissues were frozen in O.C.T. on dry ice. Spinal cords were pressure ejected using chilled 1×PBS. Sections of L4-L5 DRGs ([…]) were mounted onto SuperFrost Plus slides (Thermo Fisher Scientific) and fixed in ice-cold 10% formalin in 1×PBS for 1 h then subsequently washed 3×10 each in 1×PBS and processed for immunohistochemistry (IHC). Slides were permeabilized in 50% ethanol for 30 min. After 30 min, slides were washed 3×10 each in 1×PBS. Tissues were blocked for at least 2 h in 1×PBS and 10% NGS. Primary antibodies against NeuN, peripherin, p-eIF4E^S209 and eIF4E were applied and incubated with DRG sections on slides at 4° C. overnight. Immunoreactivity was visualized after 1 h incubation with Alexa Fluor secondary antibodies at room temperature. Images were taken using an Olympus FluoView 1200 confocal microscope. Images are presented as projections of Z stacks, and they are representative of samples taken from 3 animals.

mice [2] = test: thermal latency (Hargreaves) after type I IFN or poly (I:C); format: in vivo, mouse; details: 1 mg/kg i.p. for 2 consecutive days, 3-24 h after second administration
Procedure: (§1) Behavior. Mice were housed on 12-hour light/dark cycles with food and water available ad libitum. Mice were randomized to groups from multiple cages to avoid using mice from experimental groups that were cohabitating. Sample size was estimated by performing a power calculation using G*Power (version 3.1.9.2). With 80% power and an expectation of d=2.2 effect size in behavioral experiments, and a set to 0.05, the sample size required was calculated as n=6 per group. The inventors therefore sought to have at least n=6 sample in all behavioral experiments. SD (set at 0.3) for the power calculation was based on previously published mechanical threshold data from the inventors' lab (Moy et al., 2017). Animals were habituated for 1 hour to clear acrylic behavioral chambers before beginning the experiment. For intraplantar injections, drugs were injected in a total volume of 25 μL through a 30-gauge needle. For intraperitoneal injections, drugs were administered in a volume of 100 μL Mechanical paw withdrawal thresholds in mice were measured using the up-down method (Chaplan et al., 1994) with calibrated von Frey filaments (Stoelting Company, WoodDale, Ill.). Thermal latency was measured using a Hargreaves device (IITC Life Science) (Hargreaves et al., 1988) with heated glass settings of 29° C., 40% active laser power, and 20 sec cutoff were used. The experimenter was blinded to the genotype of the mice and the drug condition in all experiments.

[3] = body temperature after intraperitoneal poly (I:C); format: in vivo, mouse; details: 1 mg/kg i.p.
mice [4] = test: mechanical paw withdrawal threshold (von Frey) after type I IFN or poly (I:C); format: in vivo, mouse; details: 1 mg/kg i.p. for 2 consecutive days, 3-24 h after second administration
Procedure: as §1

Compound	IL-6 induced DRG nociceptor excitability (DRG neurons)	cold hypersensitivity induced by peripheral nerve injury (mice [1])	p-ERK, p-eIF4E, p-PKR or p-eIF2α (cultured DRG neurons)	phosphorylated eIF4E immunoreactivity in L5 DRGs (eIF4E)	total eIF4E protein in L5 DRGs (eIF4E)	thermal hypersensitivity (mice [2])	core body temperature [3]	mechanical hypersensitivity (mice [4])
CC(=O)C1=C(O)C=C2Oc3c(C(N)=O)c(O)cc(O)c3[C@]2(C)C1=O [cercosporamide]	attenuated	reduced	–	–	–	–	–	–
poly (I:C)	–	–	did not increase	increased phosphorylated eIF4E immunoreactivity	without affecting total eIF4E protein	thermal hypersensitivity	increase in core body temperature	developed mechanical hypersensitivity
